Results published in patent publication US9642854B2, “Flavanoid compounds and process for preparation thereof” (Council of Scientific & Industrial Research, priority 2009, dated 2017).
≈ marks a conversion by molar mass, not a printed value. Like-named read-outs stand apart in the source and are kept apart here.

Experiments:
Type in all cases: cell-based, Helicobacter pylori
H. pylori [1] = assay: Anti H. pylori screening by disc diffusion susceptibility assay; settings: 72 h; for Inhibition zone diameter (score): 100 and 200 mg/disc (so in the source)
Procedure, shortened: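 Clinical strains HP001, HP002 and ATCC 700392, 43504, 49503 (10^8 CFU/mL) spread on supplemented BHI agar; 5 mm discs loaded with 100 and 200 […] compound in ethanol or DMSO. Zones read after 72 h microaerophilic growth at 37 °C; scored + (10-20 mm), ++ (20-30 mm), +++ (>30 mm), Nil <10 mm.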

H. pylori [2] = assay: Anti H. pylori spectrum (MIC) by agar dilution method; settings: Helicobacter pylori; for MIC50: MIC against 50% of the strains of the panel, read-out: MIC50
Procedure, shortened: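 Agar dilution per CLSI against six clinical isolates and four standard strains on BHI agar with 7% FCS, 0.5% IsoVitalex and DENT. Inoculum ~10^8 CFU/mL; 2-fold compound dilutions from 1.56-100; 72 h microaerophilic at 37 °C. MIC read visually as no growth, in duplicate; MIC50 covers 50% of strains.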

H. pylori [3] = assay: MIC and MBC by microbroth dilution assay; settings: for MBC / MIC: Helicobacter pylori
Procedure, shortened: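 Two-fold serial dilutions in Mueller Hinton broth with 5% FCS, inoculated with clinical strain HP001 or ATCC 43504 at ~10^6 CFU/mL, incubated 72 h at 37° C under microaerophilic conditions. MIC is the lowest concentration with no visible growth; MBC from streaking growth-free wells onto BHI agar.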

H. pylori [4] = assay: Acid stability study (pH ~2.0, 2 h, then MIC/MBC by microbroth dilution); settings: for MBC / MIC: Helicobacter pylori
Experimental: Details of experimental protocol are described under Experiment 7. MIC/MBC values were determined by microbroth dilution assay.
A 100 μL stock of CPP-1, NMC-1, NMC-2 and CPP-3 (1-2 mg/mL) was treated with 20-30 μL of 0.12 NHCl to bring the pH of the solution to ^˜2.0, and kept at 25° C. for 2 h (Funatogawa et al., 2004). Such acid-treated samples were then serially diluted (2 fold) with medium in 96-well microtitre plates to determine the MIC and the MBC values by microbroth dilution assay as detailed under Experiment 3.

H. pylori ATCC 43504 = assay: Short time kill kinetics in shake culture at different pH
[5] = ATCC43504, microbroth dilution, ATCC 43504

How did the “Inhibition zone diameter (score)” value (H. pylori [1]; ATCC standard strain 43504) turn out when O=c1cc(-c2ccccc2)oc2cc(OCCCCCCN3CCCCC3)cc(O)c12 [CPP-1, 5-Hydroxy-2-phenyl-7-(6-piperidin-1-yl-hexyloxy)-chromen-4-one] was run?
The value was “++ (20-30 mm as ^++)”.

And the “Inhibition zone diameter (score)” value (H. pylori [1]; ATCC standard strain 49503)?
The value was “+++ (that of >30 mm as ^+++)”.

What about the “Inhibition zone diameter (score)” value (H. pylori [1]; ATCC standard strain 700392) of the same compound?
Its value is “++ (20-30 mm as ^++)”.

And the zone of inhibition at 100 µg/disc (H. pylori [1]; Helicobacter pylori, 100 and 200 μg/disc, majority of the strains, read-out: Activity class by inhibition zone diameter)?
Its zone of inhibition at 100 µg/disc is greater than 30 mm.

And the “Inhibition zone diameter (score)” value (H. pylori [1]; clinical strain HP001)?
Its value is “++ (20-30 mm as ^++)”.

What about the “Inhibition zone diameter (score)” value (H. pylori [1]; clinical strain HP002) of the same compound?
The value was “+++ (that of >30 mm as ^+++)”.

What about the MIC50 (H. pylori [2]; 72 h) of the same compound?
The MIC50 was roughly 3.12 µg/mL (≈ 7.41 µM).

And the MIC (H. pylori [2]; 72 h, panel of 6 clinical isolates and 4 standard strains, read-out: MIC Range)?
The MIC was 3.12 to 25 µg/mL (≈ 7.41 to 59.3 µM).

What about the MIC50 (H. pylori [2]) of the same compound?
Its MIC50 is 3.12 µg/mL (≈ 7.41 µM).

What about the MIC (H. pylori [2]; clinical strain HP001, read-out: MIC) of the same compound?
Its MIC is 6.25 µg/mL (≈ 14.8 µM).

And the MIC (H. pylori [2]; clinical strain HP002, read-out: MIC)?
The MIC was 6.25 µg/mL (≈ 14.8 µM).

And the MIC (H. pylori [2]; clinical strain HP003, read-out: MIC)?
Its MIC is less than 3.12 µg/mL.

What about the MIC (H. pylori [2]; clinical strain HP004, read-out: MIC) of the same compound?
Its MIC is less than 3.12 µg/mL.

And the MIC (H. pylori [2]; clinical strain HP005, read-out: MIC)?
The MIC was less than 3.12 µg/mL.

What about the MIC (H. pylori [2]; clinical strain HP006, read-out: MIC) of the same compound?
The MIC was less than 3.12 µg/mL.

What about the MIC (H. pylori [2]; standard strain 43504, read-out: MIC) of the same compound?
Its MIC is 6.25 µg/mL (≈ 14.8 µM).

And the MIC (H. pylori [2]; standard strain 43629, read-out: MIC)?
The MIC was 25 µg/mL (≈ 59.3 µM).

And the MIC (H. pylori [2]; standard strain 49503, read-out: MIC)?
Its MIC is 6.25 µg/mL (≈ 14.8 µM).

And the MIC (H. pylori [2]; standard strain 700392, read-out: MIC)?
Its MIC is 3.12 µg/mL (≈ 7.41 µM).

And the MBC (H. pylori [3]; [5])?
Its MBC is roughly 6.25 µg/mL (≈ 14.8 µM).

What about the MIC (H. pylori [3]; [5]) of the same compound?
The MIC was roughly 6.25 µg/mL (≈ 14.8 µM).

And the MBC (H. pylori [3]; microbroth dilution, HP001)?
The MBC was 12.5 µg/mL (≈ 29.7 µM).

What about the MIC (H. pylori [3]; microbroth dilution, HP001) of the same compound?
Its MIC is 6.25 µg/mL (≈ 14.8 µM).

What about the MBC (H. pylori [3]; range over strains) of the same compound?
The MBC was 6.25 to 12.5 µg/mL (≈ 14.8 to 29.7 µM).

And the MIC/MBC dose range (H. pylori [3]; dose range at which irreversible morphological deformation is induced)?
Its MIC/MBC dose range is 6.25 to 12.5 µg/mL.

And the MBC (H. pylori [4]; 2 h, pH ~2.0, 2 h, 25° C., 43504, read-out: MBC, Acid treated)?
The MBC was 25000 µg/mL (≈ 59300 µM).

What about the MIC (H. pylori [4]; 2 h, pH ~2.0, 2 h, 25° C., 43504, read-out: MIC, Acid treated) of the same compound?
Its MIC is 12500 µg/mL (≈ 29700 µM).

And the MBC (H. pylori [4]; 2 h, pH ~2.0, 2 h, 25° C., HP001, read-out: MBC, Acid treated)?
The MBC was less than 12500 µg/mL.

And the MIC (H. pylori [4]; 2 h, pH ~2.0, 2 h, 25° C., HP001, read-out: MIC, Acid treated)?
Its MIC is 12500 µg/mL (≈ 29700 µM).

What about the MBC (H. pylori [4]; not acid treated, 43504, read-out: MBC, Control) of the same compound?
The MBC was less than 6250 µg/mL.

And the MIC (H. pylori [4]; not acid treated, 43504, read-out: MIC, Control)?
The MIC was 6250 µg/mL (≈ 14800 µM).

What about the MBC (H. pylori [4]; not acid treated, HP001, read-out: MBC, Control) of the same compound?
The MBC was 12500 µg/mL (≈ 29700 µM).

What about the MIC (H. pylori [4]; not acid treated, HP001, read-out: MIC, Control) of the same compound?
Its MIC is 6250 µg/mL (≈ 14800 µM).

What about the “increase in MIC and MBC values upon exposure to acid” value (H. pylori [4]; pH 2.0 for 2 hours) of the same compound?
The value was “about 2 fold”.

What about the decrease of growth (H. pylori ATCC 43504; 50 mg/mL (so in the source), pH 4.0, 5.0 and 6.0, short exposure) of the same compound?
Its decrease of growth is 3 log.

And the survival of bacteria (H. pylori ATCC 43504; 50 mg/mL (so in the source), pH 7.2)?
The survival of bacteria was “the bacteria survived”.

And the “rate of killing as function of pH” value (H. pylori ATCC 43504; 100 and 150 mg/mL (so in the source))?
The value was “the rate of killing was found to increase as the pH of the media raised”.
